Several values for one entry are separate records, joined by “and”; a condition that tells them apart may be missing. Identical values can stand only once. Inconclusive results and toxic doses are left out. No stated cut-off is given here; in the data, active means T/C of 150% or more; inactive means T/C below 125%.
Tested on: L1210 leukemia ip in BDF1 mice, survival T/C
Test: NCI In Vivo Anticancer Drug Screen. Data for tumor model L1210 Leukemia (intraperitoneal) in B6D2F1 (BDF1) mice
Details: endpoint: mean survival time, higher = longer survival
In short: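 Each compound was tested against a transplantable tumor grown in mice. The endpoint was survival, with treated animals benchmarked against vehicle controls as a simple ratio.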

[1] = dose: 100.0 mg/kg/injection, schedule: Q01DX001 (ip), vehicle: carboxymethylcellulose (CMC)
[2] = dose: 200.0 mg/kg/injection, schedule: Q01DX001 (ip), vehicle: carboxymethylcellulose (CMC)
[3] = dose: 400.0 mg/kg/injection, schedule: Q01DX001 (ip), vehicle: carboxymethylcellulose (CMC)
[4] = dose: 100.0 mg/kg/injection, schedule: Q01DX009 (ip), vehicle: Klucel (hydroxypropylcellulose) (HPC)
[5] = dose: 200.0 mg/kg/injection, schedule: Q01DX009 (ip), vehicle: Klucel (hydroxypropylcellulose) (HPC)
[6] = dose: 100.0 mg/kg/injection, schedule: Q01DX001 (ip), vehicle: saline
[7] = dose: 200.0 mg/kg/injection, schedule: Q01DX001 (ip), vehicle: saline
[8] = dose: 400.0 mg/kg/injection, schedule: Q01DX001 (ip), vehicle: saline
[9] = dose: 100.0 mg/kg/injection, schedule: Q04DX003 (ip), vehicle: saline with Tween-80
[10] = dose: 200.0 mg/kg/injection, schedule: Q04DX003 (ip), vehicle: saline with Tween-80
[11] = dose: 400.0 mg/kg/injection, schedule: Q04DX003 (ip), vehicle: saline with Tween-80
[12] = dose: 50.0 mg/kg/injection, schedule: Q04DX003 (ip), vehicle: Klucel (hydroxypropylcellulose) (HPC)
[13] = dose: 100.0 mg/kg/injection, schedule: Q04DX002 (ip), vehicle: Klucel (hydroxypropylcellulose) (HPC)
[14] = dose: 100.0 mg/kg/injection, schedule: Q04DX003 (ip), vehicle: Klucel (hydroxypropylcellulose) (HPC)
[15] = dose: 200.0 mg/kg/injection, schedule: Q04DX002 (ip), vehicle: Klucel (hydroxypropylcellulose) (HPC)
[16] = dose: 100.0 mg/kg/injection, schedule: Q04DX002 (ip), vehicle: saline with Tween-80
[17] = dose: 200.0 mg/kg/injection, schedule: Q04DX002 (ip), vehicle: saline with Tween-80
[18] = dose: 400.0 mg/kg/injection, schedule: Q01DX009 (ip), vehicle: Klucel (hydroxypropylcellulose) (HPC)

Measured: T/C

O=C(O)c1cc(OCc2ccccc2)cc(OCc2ccccc2)c1
inactive: dose: 25.0 mg/kg/injection, schedule: Q01DX009 (ip), vehicle: carboxymethylcellulose (CMC) 102 % of control and 105 % of control | dose: 50.0 mg/kg/injection, schedule: Q01DX009 (ip), vehicle: carboxymethylcellulose (CMC) 101 % of control and 91 % of control | [1] 101 % of control and 103 % of control | dose: 100.0 mg/kg/injection, schedule: Q01DX009 (ip), vehicle: carboxymethylcellulose (CMC) 92 % of control and 112 % of control and 91 % of control | dose: 100.0 mg/kg/injection, schedule: Q04DX002 (ip), vehicle: carboxymethylcellulose (CMC) 92 % of control and 88 % of control | dose: 100.0 mg/kg/injection, schedule: Q04DX003 (ip), vehicle: carboxymethylcellulose (CMC) 95 % of control and 97 % of control | [2] 96 % of control and 107 % of control | dose: 200.0 mg/kg/injection, schedule: Q04DX002 (ip), vehicle: carboxymethylcellulose (CMC) 95 % of control and 97 % of control | dose: 200.0 mg/kg/injection, schedule: Q04DX003 (ip), vehicle: carboxymethylcellulose (CMC) 99 % of control and 91 % of control | [3] 93 % of control and 96 % of control | dose: 400.0 mg/kg/injection, schedule: Q04DX002 (ip), vehicle: carboxymethylcellulose (CMC) 92 % of control and 97 % of control | dose: 400.0 mg/kg/injection, schedule: Q04DX003 (ip), vehicle: carboxymethylcellulose (CMC) 92 % of control and 100 % of control

C=CC1(C)CCC(=O)N1 (stereo not given)
inactive: dose: 75.0 mg/kg/injection, schedule: Q04DX003 (ip), vehicle: other 104 % of control | dose: 150.0 mg/kg/injection, schedule: Q04DX003 (ip), vehicle: other 98 % of control | dose: 300.0 mg/kg/injection, schedule: Q04DX003 (ip), vehicle: other 98 % of control

COC(=O)c1cc(C)cc(O)c1C
inactive: [1] 104 % of control | [2] 98 % of control | [3] 104 % of control

O=C(NCCCl)Nc1ccc(Cl)c(Cl)c1
inactive: [1] 101 % of control | [4] 94 % of control | [2] 95 % of control | [5] 98 % of control | [3] 106 % of control

CCCCC(=O)N/N=C/c1ccc(OCC)c(OCC)c1
inactive: [6] 102 % of control | [7] 98 % of control | [8] 102 % of control

Cc1ccc(C)c(NC(=O)N(C2CCCCC2)C2CCCCC2)c1
inactive: dose: 100.0 mg/kg/injection, schedule: Q01DX009 (ip), vehicle: saline with Tween-80 112 % of control | [9] 100 % of control | dose: 200.0 mg/kg/injection, schedule: Q01DX009 (ip), vehicle: saline with Tween-80 101 % of control | [10] 94 % of control | dose: 400.0 mg/kg/injection, schedule: Q01DX009 (ip), vehicle: saline with Tween-80 107 % of control | [11] 97 % of control

CNC(=O)Oc1ccccc1C(=O)NCO
inactive: dose: 50.0 mg/kg/injection, schedule: Q01DX001 (ip), vehicle: Klucel (hydroxypropylcellulose) (HPC) 97 % of control | dose: 50.0 mg/kg/injection, schedule: Q01DX009 (ip), vehicle: Klucel (hydroxypropylcellulose) (HPC) 101 % of control and 107 % of control | [12] 97 % of control | dose: 100.0 mg/kg/injection, schedule: Q01DX001 (ip), vehicle: Klucel (hydroxypropylcellulose) (HPC) 101 % of control | [13] 94 % of control and 101 % of control | [14] 106 % of control | [15] 98 % of control

c1ccc(N=Nc2cccnn2)cc1
inactive: dose: 50.0 mg/kg/injection, schedule: Q04DX002 (ip), vehicle: saline with Tween-80 97 % of control | [16] 105 % of control | [17] 94 % of control

c1ccc(-c2[nH]c3ccccc3c2-c2ccccc2)cc1
inactive: [12] 90 % of control | [4] 106 % of control | [14] 98 % of control | [5] 103 % of control | dose: 200.0 mg/kg/injection, schedule: Q04DX003 (ip), vehicle: Klucel (hydroxypropylcellulose) (HPC) 106 % of control | [18] 96 % of control | dose: 400.0 mg/kg/injection, schedule: Q04DX003 (ip), vehicle: Klucel (hydroxypropylcellulose) (HPC) 92 % of control

c1cc2cnc3cccc4cnc(c1)c2c43
inactive: dose: 100.0 mg/kg/injection, schedule: Q04DX003 (ip), vehicle: saline sonified 105 % of control | dose: 200.0 mg/kg/injection, schedule: Q04DX003 (ip), vehicle: saline sonified 95 % of control | dose: 400.0 mg/kg/injection, schedule: Q04DX003 (ip), vehicle: saline sonified 97 % of control

N#CC(c1ccccc1)C(O)(c1ccccc1)c1ccccc1 (stereo not given)
inactive: dose: 50.0 mg/kg/injection, schedule: Q01DX001 (ip), vehicle: saline 98 % of control | [6] 98 % of control | [7] 93 % of control | [8] 91 % of control

ClCc1noc(-c2ccccc2)n1
inactive: [16] 98 % of control | [17] 95 % of control | dose: 400.0 mg/kg/injection, schedule: Q04DX002 (ip), vehicle: saline with Tween-80 101 % of control

CN(C)CCS(=O)(=O)CCc1ccccc1
inactive: dose: 75.0 mg/kg/injection, schedule: Q01DX001 (ip), vehicle: carboxymethylcellulose (CMC) 106 % of control | dose: 150.0 mg/kg/injection, schedule: Q01DX001 (ip), vehicle: carboxymethylcellulose (CMC) 98 % of control | dose: 300.0 mg/kg/injection, schedule: Q01DX001 (ip), vehicle: carboxymethylcellulose (CMC) 101 % of control

C=CCNc1ccnc(SC)n1
inactive: dose: 100.0 mg/kg/injection, schedule: Q01DX001 (ip), vehicle: gum acacia 94 % of control | dose: 200.0 mg/kg/injection, schedule: Q01DX001 (ip), vehicle: gum acacia 103 % of control

O=C1c2ccccc2CCC12OC2c1ccc(Cl)cc1 (stereo not given)
inactive: dose: 50.0 mg/kg/injection, schedule: Q01DX009 (ip), vehicle: saline 102 % of control | dose: 100.0 mg/kg/injection, schedule: Q01DX009 (ip), vehicle: saline 107 % of control | [9] 108 % of control | dose: 200.0 mg/kg/injection, schedule: Q01DX009 (ip), vehicle: saline 98 % of control | [10] 95 % of control | dose: 400.0 mg/kg/injection, schedule: Q01DX009 (ip), vehicle: saline 100 % of control | [11] 103 % of control

COc1ccc(-c2ccc([N+](=O)[O-])cc2[N+](=O)[O-])cc1
inactive: [1] 105 % of control | [2] 110 % of control | [3] 105 % of control

O=C(NCCl)Nc1ccccc1
inactive: dose: 25.0 mg/kg/injection, schedule: Q04DX002 (ip), vehicle: saline 106 % of control | dose: 50.0 mg/kg/injection, schedule: Q04DX002 (ip), vehicle: saline 106 % of control | dose: 100.0 mg/kg/injection, schedule: Q04DX002 (ip), vehicle: saline + alcohol 100 % of control | dose: 100.0 mg/kg/injection, schedule: Q04DX002 (ip), vehicle: saline 100 % of control

O=C(CCC(=O)Nc1ccccc1)Nc1ccccc1
inactive: [1] 96 % of control | [2] 102 % of control | [3] 102 % of control

Cc1cc(O)ccc1C1=NCC(C)S1 (stereo not given)
inactive: dose: 100.0 mg/kg/injection, schedule: Q01DX005 (ip), vehicle: Klucel (hydroxypropylcellulose) (HPC) 87 % of control | [4] 98 % of control | [13] 100 % of control | dose: 200.0 mg/kg/injection, schedule: Q01DX005 (ip), vehicle: Klucel (hydroxypropylcellulose) (HPC) 101 % of control | [5] 109 % of control | [15] 100 % of control | dose: 400.0 mg/kg/injection, schedule: Q01DX005 (ip), vehicle: Klucel (hydroxypropylcellulose) (HPC) 90 % of control | [18] 95 % of control | dose: 400.0 mg/kg/injection, schedule: Q04DX002 (ip), vehicle: Klucel (hydroxypropylcellulose) (HPC) 107 % of control

Source: PubChem BioAssay AID248 (DTP/NCI, 2004)
